Experimental data from the NIST ThermoML archive (doi:10.1016/j.tca.2016.02.005).

Key:
[1] = 101.3 kPa, Liquid; for speed of sound: Frequency=3 MHz, Sing-around technique in a fixed-path interferometer; for mass density: Vibrating tube method
[2] = refractive index (Na D-line) (dimensionless); conditions: 101.3 kPa, Liquid, Standard Abbe refractometry
[3] = xn = mol fraction of the nth substance listed; conditions: 101.3 kPa, Liquid, x1 = 1; for speed of sound: Frequency=3 MHz, Sing-around technique in a fixed-path interferometer; for mass density: Vibrating tube method
[4] = refractive index (Na D-line) (dimensionless); xn = mol fraction of the nth substance listed; conditions: 101.3 kPa, Liquid, Standard Abbe refractometry, x1 = 1

CCn1cc[n+](C)c1.F[B-](F)(F)F [1-ethyl-3-methylimidazolium tetrafluoroborate]
Conditions | mass density, [1] [kg/m3] | refractive index, [2] | speed of sound, [1] [m/s]
298.15 K | 1277.6 | 1.4103 | 1622.9
308.15 K | 1269.9 | 1.4077 | 1599.5
318.15 K | 1262.1 | 1.4051 | 1576.5
328.15 K | 1254.6 | 1.4023 | 1553.8

COCCO [2-methoxyethan-1-ol]
Conditions | mass density, [1] [kg/m3] | refractive index, [2] | speed of sound, [1] [m/s]
298.15 K | 960.9 | 1.4003 | 1345.8
308.15 K | 951.7 | 1.3961 | 1311.3
318.15 K | 942.7 | 1.3917 | 1276.4
328.15 K | 933.4 | 1.3876 | 1241.9

CCn1cc[n+](C)c1.F[B-](F)(F)F [1-ethyl-3-methylimidazolium tetrafluoroborate] + COCCO
Conditions | mass density, [3] [kg/m3] | refractive index, [4] | speed of sound, [3] [m/s]
298.15 K | 1277.6 | 1.4103 | 1622.9
308.15 K | 1269.9 | 1.4077 | 1599.5
318.15 K | 1262.1 | 1.4051 | 1576.5
328.15 K | 1254.6 | 1.4023 | 1553.8
